Results: paper PMC5928494 (ACS Omega, 2018)
Where two headings read alike, the source gives them in different places.

Tests used:
[1] = tested on: MX-1 (human breast cancer) cell line; experiment: cells; details: 72 h, read-out: Cytotoxicity IC50, MX-1
in vitro = details: human
[2] = tested on: ID-8 (murine ovarian cancer) cell line; experiment: cells; details: Mus musculus, 72 h, read-out: Cytotoxicity IC50, ID-8
[3] = tested on: MX-1 (human breast cancer) cell line
[4] = tested on: WI-38 (human lung fibroblast, normal) cell line
[5] = tested on: ID-8 (murine ovarian cancer) cell line

Question: Which results are given for `CC(=O)O[C@H]1C(=O)[C@@]2(C)[C@H]([C@H](OC(=O)c3ccccc3)[C@]3(O)C[C@H](OC(=O)[C@H](O)[C@@H](NC(=O)c4ccccc4)c4ccccc4)C(C)=C1C3(C)C)[C@]1(OC(C)=O)CO[C@@H]1C[C@@H]2O` [paclitaxel]?
Answer: IC50 [1]: 3.83 ± 0.59 nM; IC50 (in vitro): 175 ± 51.6 nM; IC50 [2]: 21.2 ± 4.3 nM

Question: What does the source list for “SB-T-1214 [compound 4, reference compound]”?
Answer: IC50 [3]: 2.9 ± 0.47 nM; IC50 [4]: 4.14 ± 0.82 nM; IC50 [5]: 1.89 ± 0.3 nM
